This assay concerns Pseudomonas aeruginosa MB 2835. Kind of assay: In vivo activity against Pseudomonas aeruginosa MB 2835 systemic infections in mice (Table X). The note with it: for s.c./i.p. ED50 administration ratio: 10080 min; for ED50 i.p.: i.p. at 0 and 6 hours after infection; for ED50 i.p. / ED50 s.c.: multiplied by two doses, 7 days observation; for ED50 s.c.: s.c. at 0 and 6 hours after infection. Also noted: species or system Pseudomonas aeruginosa; CD 1 female mice. The procedure:
The in vivo activities of Tejeramycin, components A through G were determined against Pseudomonas aeruginosa MB 2835 infections in mice. Experimental systemic infections were produced in CD 1 female mice (Charles River Breeding Labs., Wilmington, Ma.), average body weight 19-22 grams, by the intraperitoneal (i.p.) injection of a suitably diluted overnight culture of Pseudomonas aeruginosa MB-2835 in brain heart infusion broth (Difco). The challenge dose varied from about 11-50 LD50 's LD50 =median lethal dose, the dose that should kill 50% of the infected, untreated mice). Under these conditions, the infected, untreated mice died within 48 hours.
The antibiotics were administered as aqueous solutions by intraperitoneal or subcutaneous (s.c.) injection at 0 and 6 hours after infection. At least four different dose levels of the antibiotics were used; each dose group consisted of five mice. […] Statist. Assoc. 42: 282-296, 1947.
From rich cuts 1-9e described in Tables III and IV, a series of seven samples were prepared for in vivo evaluation. Sample composition as well as in vivo results are summarized in Table X. Carbenicillin and gentamicin were included as controls.

`CC1(C)S[C@@H]2[C@H](NC(=O)C(C(=O)O)c3ccccc3)C(=O)N2[C@H]1C(=O)O` (stereo partly drawn) [Carbenicillin]: where the note is “Example A”, the “s.c./i.p. ED50 administration ratio” value is 3.2, the ED50 i.p. stood at 5.31 mg and the ED50 s.c. worked out at 17.1 mg. For the same compound, where the note is “Example B”, the “s.c./i.p. ED50 administration ratio” value was 1.5, the ED50 i.p. came out at 4.14 mg and the ED50 s.c. amounted to 6.04 mg.
In the case of Gentamicin, under “Example A”, the “s.c./i.p. ED50 administration ratio” value is listed as 23, the ED50 i.p. is 0.013 mg and the ED50 s.c. was determined as 0.30 mg. In addition, where the note is “Example B”, the “s.c./i.p. ED50 administration ratio” value is 20, the ED50 i.p. was determined as 0.0063 mg and the ED50 s.c. is given as 0.125 mg.

For the origin of these results see US4656036A, “Antibiotics Tejeramycin and production thereof” (Merck & Co., Inc., priority 1985, dated 1987).
